Laboratory results from Sander's compilation of Henry's law constants (doi:10.1136/oem.51.1.68).

Assay: Henry solubility constant Hcp at 310 K (mol/(m3 Pa))
Settings: reference: Kaneko et al. (1994)

Row | Compound | Henry solubility constant Hcp at 310 K
1 | CC(C)CO [2-methyl-1-propanol] | 0.44
2 | CCCO [1-propanol] | 0.72
3 | CCC(C)CO (centres undefined) [2-methyl-1-butanol] | 0.33
4 | CC(C)O [2-propanol] | 0.58
5 | CCCCCO [1-pentanol] | 0.42
6 | CCO [ethanol] | 0.83
7 | CC(=O)OC(C)C [2-propyl ethanoate] | 0.013
8 | COC(C)=O [methyl ethanoate] | 0.042
9 | CC(=O)OCCC(C)C [3-methylbutyl ethanoate] | 0.0088
10 | CCCCCOC(C)=O [pentyl ethanoate] | 0.0093
11 | CCCCOC(C)=O [butyl ethanoate] | 0.013
12 | CC(=O)OCC(C)C [2-methylpropyl ethanoate] | 0.01
13 | CCOC(C)=O [ethyl ethanoate] | 0.028
14 | CCCOC(C)=O [propyl ethanoate] | 0.021
